# Test results reported in US20240238239A1, “METHODS AND COMPOSITIONS FOR PO[…] CELL THERAPIES” (Ojai Energetics PBC, priority 2016, published 2024).
# Test system: mice with spinal cord injuries
# Test: Neural stem cell treatment after spinal cord injury (BMS scores, rotarod treadmill tests)
# Format: in vivo, mouse
# Conditions: neural stem cells pre-treated with cannabidiol 1-50 μM for 10 days plus diet supplemented with microencapsulated hemp oil composition; combined treatment
# Procedure: Mouse neural stem cells expressing green fluorescent protein (GFP) under the control of a constitutive promoter are treated with either cannabidiol (1 μM, 5 μM, 10 μM or 50 μM) or vehicle control for 10 days. The cells are then transplanted directly into the spinal cords of mice with spinal cord injuries. Mice are maintained on a control diet or a diet supplemented with a microencapsulated hemp oil composition comprising cannabinoids, including cannabidiol, at concentrations similar to those used in the cell culture media. Mice are monitored daily for signs of spinal cord recovery evaluations of locomotor function based on Basso Mouse Scale (BMS) scores, a locomotor rating scale based on the frequency analyses of seven locomotor categories, and rotarod treadmill tests. Two months after the stem cell treatment the mice are sacrificed and the spinal cords are histologically examined.
compound,measurement,value
C=C(C)[C@@H]1CCC(C)=C[C@H]1c1c(O)cc(CCCCC)cc1O [cannabidiol],spinal cord recovery (locomotor function),more rapid and more robust recovery
